From US20090311237A1, “Combination therapy using a soluble hyaluronidase and a bisphosphonate” (priority 2008, published 2009)
“And” between values parts separate entries of the source, which are not always exact repeats. Identical values can stand only once.

Assay: Phase 1 Stage 1 clinical pharmacokinetics of SC ZA co-administered with rHuPH20
Assay type: in vivo, human
Conditions: for MAT (mean absorption time = SC MRT − IV MRT) / MAT, Mean for the dose group / MAT, Median for the dose group: 100 mL, 24000 Units rHuPH20
Protocol: A pharmacokinetic study of zoledronic acid (ZA) co-administered with rHuPH20 in human subjects was conducted. The primary objective of the study was to determine the bioavailability of zoledronic acid dosed via subcutaneous (SC) co-administration with human recombinant hyaluronidase PH20 (rHuPH20). […] The patients were administered the prescribed dosage formulations as follows: Cohorts 1-5 were administered a single subcutaneous infusion in a dosage volume of 100 ml at a rate of 3 mL/min. […] The dosing solution is administered via needle or catheter into the SC space of the left anterior thigh (midway between the anterior iliac crest and the cephalad border of the patella). For cohorts 1-5, the dosing solutions were administered by a controlled rate infusion pump at approximately 3 mL/minute. […] The dosing solutions were administered by syringe push bolus injection. […] Serum concentration of ZA was determined using a qualified LC-MS-MS assay after derivatization with diazomethane (Zhu, L S et al. (2006) Rapid Commun. […] The assay range was from 2.0 to 400 ng/mL with a lower limit of quantitation (LLOQ) at 2.0 ng/mL. […] Non-compartmental analysis was used for derivation of primary and secondary pharmacokinetic (PK) parameters. […] Summary statistics (mean, standard deviation, and median) were calculated using JMP or Microsoft Excel.

[1] = Subj 51, ZA […] SC, inf 0.251 hr, PH20 6024 U
[2] = Subj 63, ZA 0.0820 mg/kg SC, inf […], PH20 6000 U
[3] = Subj 67, ZA 0.0717 mg/kg SC, inf […], PH20 2880 U
[4] = Subj 68, ZA 0.0608 mg/kg SC, inf […], PH20 2880 U
[5] = Subj 70, ZA 0.0776 mg/kg SC, inf […], PH20 2928 U
[6] = Subj 71, ZA 0.0781 mg/kg SC, inf […], PH20 6000 U
[7] = Subj 74, ZA 0.0794 mg/kg SC, inf […], PH20 6000 U
[8] = Subj 77, ZA […] SC, inf […], PH20 6000 U
[9] = ZA 0.25 mg SC + 24000 U rHuPH20, individual subjects
[10] = ZA 0.25 mg SC + 24000 U rHuPH20, mean, n=3
[11] = ZA 0.25 mg SC + 24000 U rHuPH20, median, n=3
[12] = ZA 0.5 mg SC + 24000 U rHuPH20, individual subjects
[13] = ZA 0.5 mg SC + 24000 U rHuPH20, mean, n=3
[14] = ZA 0.5 mg SC + 24000 U rHuPH20, median, n=3
[15] = ZA 1 mg SC + 24000 U rHuPH20, individual subjects
[16] = ZA 1 mg SC + 24000 U rHuPH20, mean, n=3
[17] = ZA 1 mg SC + 24000 U rHuPH20, median, n=3
[18] = ZA 2 mg SC + 24000 U rHuPH20, individual subjects

Compound: O=P(O)(O)C(O)(Cn1ccnc1)P(=O)(O)O [ZA, 1-hydroxy-2-(1H-imidazol-1-yl)ethylidene-1,1-bisphosphonic acid]
- Vss [1]: 1.27627 L/kg
- Vz [1]: 3.04413 L/kg
- AUC (0-inf)/D [2]: 0.008077 kg·h/mL
- CL [2]: 2.0635 mL/min/kg
- Cmax/D [2]: 0.002037 kg/mL
- Vss [2]: 1.473 L/kg
- Vz [2]: 3.66662 L/kg
- AUC (0-inf)/D [3]: 0.01012 kg·h/mL
- CL [3]: 1.648 mL/min/kg
- Cmax/D [3]: 0.002176 kg/mL
- Vss [3]: 1.03944 L/kg
- Vz [3]: 2.6134 L/kg
- AUC (0-inf)/D [4]: 0.01035 kg·h/mL
- CL [4]: 1.61 mL/min/kg
- Cmax/D [4]: 0.002368 kg/mL
- Vss [4]: 1.59221 L/kg
- Vz [4]: 3.88814 L/kg
- AUC (0-inf)/D [5]: 0.008898 kg·h/mL
- CL [5]: 1.873 mL/min/kg
- Cmax/D [5]: 0.002771 kg/mL
- Vss [5]: 0.98673 L/kg
- Vz [5]: 3.15269 L/kg
- AUC (0-inf)/D [6]: 0.008873 kg·h/mL
- CL [6]: 1.8783 mL/min/kg
- Cmax/D [6]: 0.002535 kg/mL
- Vss [6]: 0.87424 L/kg
- Vz [6]: 3.12259 L/kg
- AUC (0-inf)/D [7]: 0.006994 kg·h/mL
- CL [7]: 2.3828 mL/min/kg
- Cmax/D [7]: 0.001511 kg/mL
- Vss [7]: 1.84253 L/kg
- Vz [7]: 4.88924 L/kg
- AUC (0-inf)/D [8]: 0.008412 kg·h/mL
- CL [8]: 1.9812 mL/min/kg
- Cmax/D [8]: 0.001824 kg/mL
- Vss [8]: 1.60873 L/kg
- Vz [8]: 4.21769 L/kg
- AUC (0-12h) [9]: 29.30 ng·h/mL
- AUC (0-∞) [9]: 30.00 ng·h/mL and 31.77 ng·h/mL
- AUC (0-∞)/D [9]: 0.00926 kg·h/mL and 0.00674 kg·h/mL and 0.00971 kg·h/mL
- Cmax/D [9]: 0.00205 kg/mL and 0.00174 kg/mL and 0.00173 kg/mL
- MRT [9]: 4.21 h
- T½elim [9]: 1.88 h and 2.44 h and 2.10 h
- AUC (0-∞)/D [10]: 0.00857 kg·h/mL
- Cmax/D [10]: 0.00184 kg/mL
- T½elim [10]: 2.14 h
- AUC (0-∞)/D [11]: 0.00926 kg·h/mL
- Cmax/D [11]: 0.00174 kg/mL
- T½elim [11]: 2.10 h
- MAT (mean absorption time = SC MRT − IV MRT) (ZA 0.25 mg SC, individual subjects): 1.47 h and 1.03 h and 2.31 h
- MAT, Mean for the dose group (ZA 0.25 mg SC, n=3): 1.60 h
- MAT, Median for the dose group (ZA 0.25 mg SC, n=3): 1.47 h
- AUC (0-12h) [12]: 66.33 ng·h/mL
- AUC (0-∞) [12]: 68.26 ng·h/mL
- AUC (0-∞)/D [12]: 0.00709 kg·h/mL and 0.00766 kg·h/mL and 0.00968 kg·h/mL
- Cmax/D [12]: 0.00174 kg/mL and 0.00192 kg/mL and 0.00214 kg/mL
- MRT [12]: 3.35 h
- T½elim [12]: 2.24 h and 2.27 h (2×)
- AUC (0-∞)/D [13]: 0.00814 kg·h/mL
- Cmax/D [13]: 0.00193 kg/mL
- T½elim [13]: 2.26 h
- AUC (0-∞)/D [14]: 0.00766 kg·h/mL
- Cmax/D [14]: 0.00192 kg/mL
- T½elim [14]: 2.27 h
- MAT (mean absorption time = SC MRT − IV MRT) (ZA 0.5 mg SC, individual subjects): 1.00 h and 1.11 h
- MAT, Mean for the dose group (ZA 0.5 mg SC, n=3): 1.03 h
- MAT, Median for the dose group (ZA 0.5 mg SC, n=3): 1.00 h
- AUC (0-12h) [15]: 137.25 ng·h/mL
- AUC (0-∞) [15]: 158.68 ng·h/mL
- AUC (0-∞)/D [15]: 0.00701 kg·h/mL and 0.01176 kg·h/mL and 0.00624 kg·h/mL
- Cmax/D [15]: 0.00174 kg/mL and 0.00247 kg/mL and 0.00128 kg/mL
- MRT [15]: 6.25 h
- Tmax [15]: 0.73 h
- T½elim [15]: 12.87 h and 13.95 h and 8.85 h
- AUC (0-∞)/D [16]: 0.00834 kg·h/mL
- Cmax/D [16]: 0.00183 kg/mL
- T½elim [16]: 11.89 h
- AUC (0-∞)/D [17]: 0.00701 kg·h/mL
- Cmax/D [17]: 0.00174 kg/mL
- T½elim [17]: 12.87 h
- MAT (mean absorption time = SC MRT − IV MRT) (ZA 1 mg SC, individual subjects): 1.41 h and 1.00 h
- MAT, Mean for the dose group (ZA 1 mg SC, n=3): 1.36 h
- MAT, Median for the dose group (ZA 1 mg SC, n=3): 1.41 h
- AUC (0-12h) [18]: 213.87 ng·h/mL and 236.51 ng·h/mL
- AUC (0-∞) [18]: 245.47 ng·h/mL and 293.51 ng·h/mL
- AUC (0-∞)/D [18]: 0.00739 kg·h/mL and 0.00809 kg·h/mL and 0.00825 kg·h/mL
- Cmax/D [18]: 0.00188 kg/mL and 0.00175 kg/mL and 0.00165 kg/mL
- MRT [18]: 10.59 h
